The target of assay [1] is T1, Metabotropic glutamate receptor 3 (Homo sapiens, UniProt Q14832).
Description: Agonist activity at human mGlu3 receptor expressed in HEK cells assessed as inhibition of forskolin-stimulated cAMP formation after 20 mins by HTRF assay
The target in assay [2] is T2, Metabotropic glutamate receptor 2 (Homo sapiens, UniProt Q14416). Kind of assay: Agonist activity at human mGlu2 receptor expressed in HEK cells assessed as inhibition of forskolin-stimulated cAMP formation after 20 mins by HTRF assay. Type of assay: functional, cell-based. (cAMP levels reflect the balance of adenylyl cyclase and phosphodiesterase activity.)
Assay [3] addresses T1, Metabotropic glutamate receptor 3. Kind of assay: biochemical.
Description: Displacement of [3H]-LY459477 from recombinant human mGlu3 receptor expressed in HEK cell membranes after 90 mins by liquid scintillation counting
Assay [4] addresses T2, Metabotropic glutamate receptor 2. Kind of assay: Displacement of [3H]-LY459477 from recombinant human mGlu2 receptor expressed in HEK cell membranes after 90 mins by liquid scintillation counting. For orientation: In a radioligand displacement assay an active substance lowers the binding of a labelled ligand.
For assay [5] the target is unchanged. Kind of assay: Antagonist activity at human mGlu2 receptor expressed in HEK cells assessed as reversal of DCG-4 inhibited forskolin-stimulated cAMP formation after 20 mins by HTRF assay. It is filed as functional, cell-based.
Assay [6] has as its target T1, Metabotropic glutamate receptor 3. Kind of assay: Antagonist activity at human mGlu3 receptor expressed in HEK cells assessed as reversal of DCG-4 inhibited forskolin-stimulated cAMP formation after 20 mins by HTRF assay. It is filed as functional, cell-based.

T2 sequence (Q14416 whole entry): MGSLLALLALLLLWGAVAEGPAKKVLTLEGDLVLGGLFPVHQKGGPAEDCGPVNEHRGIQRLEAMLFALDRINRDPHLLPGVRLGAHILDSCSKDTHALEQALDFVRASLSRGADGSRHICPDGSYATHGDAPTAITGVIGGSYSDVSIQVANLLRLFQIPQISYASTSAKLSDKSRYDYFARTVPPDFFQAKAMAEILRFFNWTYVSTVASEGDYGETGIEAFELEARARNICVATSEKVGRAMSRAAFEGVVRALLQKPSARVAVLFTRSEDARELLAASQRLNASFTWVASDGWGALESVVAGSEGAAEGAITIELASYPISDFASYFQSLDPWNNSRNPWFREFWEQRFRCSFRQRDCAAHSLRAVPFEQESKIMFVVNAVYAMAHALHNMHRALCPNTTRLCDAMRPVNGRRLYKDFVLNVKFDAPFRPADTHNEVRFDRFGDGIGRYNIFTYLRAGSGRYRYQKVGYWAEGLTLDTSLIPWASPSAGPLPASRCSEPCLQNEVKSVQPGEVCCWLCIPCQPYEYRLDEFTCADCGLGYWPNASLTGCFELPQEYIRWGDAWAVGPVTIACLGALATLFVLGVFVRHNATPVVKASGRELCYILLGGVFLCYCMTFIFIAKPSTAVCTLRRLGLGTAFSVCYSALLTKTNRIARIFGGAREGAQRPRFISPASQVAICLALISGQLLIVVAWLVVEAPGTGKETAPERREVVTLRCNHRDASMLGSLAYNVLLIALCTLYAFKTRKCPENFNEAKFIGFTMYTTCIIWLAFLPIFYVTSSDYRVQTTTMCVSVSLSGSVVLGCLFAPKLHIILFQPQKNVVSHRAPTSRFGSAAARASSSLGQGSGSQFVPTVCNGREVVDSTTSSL
T1 sequence (Q14832 whole entry): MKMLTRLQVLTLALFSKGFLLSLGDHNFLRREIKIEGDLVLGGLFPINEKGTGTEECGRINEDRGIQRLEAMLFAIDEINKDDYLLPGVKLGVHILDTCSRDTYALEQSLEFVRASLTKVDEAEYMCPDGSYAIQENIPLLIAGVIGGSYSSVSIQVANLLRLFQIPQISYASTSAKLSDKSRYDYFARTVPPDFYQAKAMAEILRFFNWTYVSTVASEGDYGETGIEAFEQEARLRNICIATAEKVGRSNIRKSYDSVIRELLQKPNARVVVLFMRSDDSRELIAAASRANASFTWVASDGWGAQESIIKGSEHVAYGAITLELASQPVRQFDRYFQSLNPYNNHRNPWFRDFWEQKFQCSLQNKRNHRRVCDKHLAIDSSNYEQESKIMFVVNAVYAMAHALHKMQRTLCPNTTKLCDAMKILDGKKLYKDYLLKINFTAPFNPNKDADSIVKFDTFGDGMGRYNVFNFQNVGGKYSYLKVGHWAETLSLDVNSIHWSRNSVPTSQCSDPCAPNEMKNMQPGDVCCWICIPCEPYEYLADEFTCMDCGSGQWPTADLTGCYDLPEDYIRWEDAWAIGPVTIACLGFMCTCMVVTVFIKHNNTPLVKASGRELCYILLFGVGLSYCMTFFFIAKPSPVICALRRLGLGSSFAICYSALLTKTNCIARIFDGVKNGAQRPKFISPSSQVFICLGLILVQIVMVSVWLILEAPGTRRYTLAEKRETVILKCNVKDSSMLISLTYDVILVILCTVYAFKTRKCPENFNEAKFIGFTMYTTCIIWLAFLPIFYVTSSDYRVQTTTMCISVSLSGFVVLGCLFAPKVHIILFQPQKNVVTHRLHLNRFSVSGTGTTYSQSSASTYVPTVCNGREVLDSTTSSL

For orientation: EC50 means the concentration giving half of the maximal effect. Usually Ki stands for the dissociation constant of the complex between target and ligand, obtained from inhibition or displacement. Consider `N[C@@]1(C(=O)O)C[C@H](NC(=O)c2cccc(O)c2)[C@H]2[C@H](C(=O)O)[C@H]21`, for which the EC50 was 0.71 nM in assay [1] and 3.77 nM in assay [2]. The Ki in assay [3] stood at 2.27 nM; in assay [4], 31.5 nM.
For the compound `N[C@@]1(C(=O)O)C[C@H](NC(=O)c2ccccc2)[C@H]2[C@H](C(=O)O)[C@H]21`, the EC50 amounted to 4.96 nM in assay [1] and 19.8 nM in assay [2]. The values for the Ki in assay [3] and in assay [4] were 6.75 nM and 294 nM, respectively.
With `N[C@@]1(C(=O)O)C[C@H](NC(=O)c2ccc(Cl)cc2)[C@H]2[C@H](C(=O)O)[C@H]21`, the concentration for a half-maximal effect (EC50) in assay [1] was determined as 5.15 nM; in assay [2] it was 6.97 nM. Besides, the Ki in assay [3] is 2.29 nM; in assay [4], 137 nM.
With `COc1ccc(C(=O)N[C@H]2C[C@@](N)(C(=O)O)[C@@H]3[C@@H](C(=O)O)[C@@H]32)cc1`, the figures for the EC50 in assay [1] and in assay [2] were 2.44 nM and 16 nM, respectively. In addition, the inhibitory constant (Ki) in assay [3] amounted to 4.56 nM; in assay [4], 188 nM.
With `N[C@@]1(C(=O)O)C[C@H](NC(=O)c2ccc(O)cc2)[C@H]2[C@H](C(=O)O)[C@H]21`, the EC50 in assay [1] was 2.12 nM; in assay [2], 6.32 nM. The figures for the Ki in assay [3] and in assay [4] were 9.34 nM and 54.7 nM, respectively.
In the case of `N[C@@]1(C(=O)O)C[C@H](NC(=O)c2cccc(Cl)c2)[C@H]2[C@H](C(=O)O)[C@H]21`, the EC50 in assay [1] is 0.82 nM; in assay [2], 8.37 nM. For the same compound, the inhibition constant (Ki) in assay [3] worked out at 0.47 nM; in assay [4] it was 85.3 nM.
As to `COc1ccccc1C(=O)N[C@H]1C[C@@](N)(C(=O)O)[C@@H]2[C@@H](C(=O)O)[C@@H]21`, the figures for the half-maximal effective concentration (EC50) in assay [1] and in assay [2] were 7.15 nM and 26.5 nM, respectively. Also, the Ki was found to be 23.2 nM in assay [3] and 151 nM in assay [4].
`N[C@@]1(C(=O)O)C[C@H](NC(=O)c2ccccc2F)[C@H]2[C@H](C(=O)O)[C@H]21`: the EC50 in assay [1] is 5.1 nM; in assay [2] it was 17.1 nM. The Ki in assay [3] was 5.79 nM; in assay [4] it was 218 nM.
Consider `N[C@H]1C[C@@](N)(C(=O)O)[C@@H]2[C@@H](C(=O)O)[C@@H]21`, for which the values for the Ki in assay [3] and in assay [4] were 284 nM and 4410 nM, respectively.
Turning to `N[C@@]1(C(=O)O)C[C@H](NC(=O)c2cccc(F)c2)[C@H]2[C@H](C(=O)O)[C@H]21`, the EC50 in assay [1] amounted to 2 nM; in assay [2] it was 18.1 nM. For the same compound, the inhibition constant Ki in assay [3] is 2.11 nM; in assay [4], 214 nM.
`CC(=O)N[C@H]1C[C@@](N)(C(=O)O)[C@@H]2[C@@H](C(=O)O)[C@@H]21`: the Ki in assay [3] turned out to be 177 nM; in assay [4] it was 898 nM.
Consider `N[C@@]1(C(=O)O)C[C@H](NC(=O)c2ccccc2Cl)[C@H]2[C@H](C(=O)O)[C@H]21`, for which the EC50 in assay [1] is 4.96 nM; in assay [2], 42.5 nM. The results for the Ki in assay [3] and in assay [4] were 27.4 nM and 391 nM, respectively.
Broadly, the IC50 is the concentration that inhibits the measured activity by half. For `N[C@@]1(C(=O)O)C[C@H](NC(=O)C2CCCCC2)[C@H]2[C@H](C(=O)O)[C@H]21`, the EC50 is above 25000 nM in assay [1] and 3390 nM in assay [2]. Besides, the half-maximal inhibitory concentration (IC50) came to 12000 nM in assay [5] and 9990 nM in assay [6]. Besides, the Ki in assay [3] was 757 nM; in assay [4], 1520 nM.
On to `N[C@@]1(C(=O)O)C[C@H](NC(=O)CCc2ccccc2)[C@H]2[C@H](C(=O)O)[C@H]21`, for which the values for the EC50 in assay [1] and in assay [2] were above 25000 nM and 893 nM, respectively. The IC50 in assay [5] turned out to be 5540 nM; in assay [6], 2050 nM. Further, the Ki in assay [3] was 281 nM; in assay [4], 595 nM.
As for `N[C@@]1(C(=O)O)C[C@H](NC(=O)c2ccc(F)cc2)[C@H]2[C@H](C(=O)O)[C@H]21`, the figures for the EC50 in assay [1] and in assay [2] were 6.6 nM and 19.1 nM, respectively. Also, the values for the inhibitory constant (Ki) in assay [3] and in assay [4] were 4.34 nM and 330 nM, respectively.
Take `N[C@@]1(C(=O)O)C[C@H](NC(=O)c2ccccc2O)[C@H]2[C@H](C(=O)O)[C@H]21`: the EC50 came to 0.17 nM in assay [1] and 7.44 nM in assay [2]. Besides, the results for the Ki in assay [3] and in assay [4] were 1.79 nM and 58.2 nM, respectively.
Turning to `N[C@@]1(C(=O)O)C[C@H](NCc2ccccc2)[C@H]2[C@H](C(=O)O)[C@H]21`, the values for the EC50 in assay [1] and in assay [2] were 356 nM and 508 nM, respectively. The Ki in assay [3] was 1070 nM; in assay [4], 11200 nM.

The record behind these values is ChEMBL document CHEMBL4020826 (J Med Chem, 2018).
